Reference: patent US20120171123A1, “USES AND COMPOSITIONS FOR TREATMENT OF RHEUMATOID ARTHRITIS” (priority 2006, published 2012)

Experiments:
[1] = tested on: patients with active rheumatoid arthritis; assay: Study A: tender and swollen joint count (TJC28/SJC28); format: in vivo, human; details: for Change in SJC, mean change from baseline / Change in TJC, mean change from baseline / SJC = 0 / TJC = 0: 12 weeks
Method: Swollen and tender joints are the most characteristic features of RA, as disease severity is directly related to the number of swollen and tender joints. Counting swollen and tender joints is a key component of the clinical assessment of RA. Tender joint count (TJC) is an assessment of 28 or more joints where several different aspects of tenderness are assessed by pressure and joint manipulation on physical examination. Swollen joint count (SJC): an assessment of 28 or more joints where joints are classified as either swollen or not swollen. For TJC and SJC scoring see Fuchs and Pincus, Arthritis Rheum 37:470-475, 1994; Arthritis Rheum 37:463-464, 1994).
The study design included a 12 week open label treatment period followed by a continuation period examining safety and efficacy. […] The main inclusion criteria for the study were the following: males and females ≧18 years; rheumatoid arthritis (RA; defined by ACR criteria) for ≧3 months; unsatisfactory response (or intolerance) to at least one prior DMARD; and patients with active RA (DAS28≧3.2). Baseline demographics and disease severity is shown below in Table 1:
Efficacy of adalimumab treatment was determined by examining signs and symptoms of the patients. Various assays were used to determine efficacy, including ACR response, EULAR response, TJC and SJC count, and DAS28.
The objective of this study was to evaluate the impact of prior biologic therapies, in particular TNF-antagonists etanercept (ETA) and infliximab (INF), on key efficacy parameters of adalimumab therapy in patients with long-standing RA in clinical practice. To evaluate the impact of prior biological therapies, patients with moderate to severe RA enrolled at 450 sites in 11 European countries plus Australia (Study A). Patients with moderate to severe RA and an inadequate response to prior DMARD therapies were enrolled in a 12-week open-label study with an optional extension phase. […] Patients with previous biologic treatment must have received the last administration at least 8 weeks before enrollment Routine safety and efficacy data were collected at weeks 2, 6, and 12, and every 8 weeks in the extension phase. Efficacy parameters included ACR20, ACR50, ACR70, EULAR Response, HAQ, tender and swollen joint count (TJC28/SJC28), and DAS28. […] For this interim analysis, efficacy outcomes were evaluated after 12 weeks of therapy per the number and type of prior biologics used: None, any (ETA, INF, anakinra), ETA only, INF only, or ETA and INF but not anakinra.
Patients with long-standing, moderate to severe RA were enrolled in Study A at 450 sites in 12 different countries. The study design for Study A is outlined in FIG. 21. […] Previous treatment with other biologics was allowed up to 8 weeks before enrollment. Patients met the following inclusion criteria: Age ≧18 years; RA (defined by American College of Rheumatology criteria) for ≧3 months; active, moderate to severe RA (Disease Activity Score (DAS28)≧3.2); unsatisfactory response or intolerance to at least one prior DMARD, including biologics. Efficacy assessments were performed at weeks 0 (baseline), 2, 6, and 12. The key outcomes measured were: change in DAS28; EULAR responses; ACR20, ACR50, ACR70 responses; changes in Tender Joint Count (TJC) and Swollen Joint Count (SJC); and change in Health Assessment Questionnaire (HAQ).

[2] = tested on: patients with long-standing RA; assay: Study I: serious adverse events and withdrawals; details: 262 patients
[3] = prior biologic: ETA + INF (n=78)
[4] = Week 12, concomitant LEF only (n=557)
[5] = Week 12, concomitant MTX + LEF (n=123)
[6] = Week 12, concomitant MTX only (n=1561)
[7] = Week 12, concomitant QC/HQC (n=85)
[8] = Week 12, concomitant SSZ only (n=89)
[9] = Wk 12, concomitant MTX Im 15 mg (N=76), no other DMARD
[10] = Wk 12, concomitant MTX Iv 15 mg (N=23), no other DMARD
[11] = Wk 12, concomitant MTX Sc 15 mg (N=37), no other DMARD
[12] = Wk 12, concomitant MTX oral 15 mg (N=405), no other DMARD
[13] = Wk 12, concomitant MTX oral ≦7.5 (N=127), no other DMARD
[14] = Wk 12, concomitant MTX oral ≧20 mg (N=216), no other DMARD
[15] = week 12, prior biologic: ETA + INF

adalimumab: human anti-TNF mAb (HUMIRA, Abbott Laboratories), described in U.S. Pat. No. 6,090,382 as D2E7
Change in SJC, mean change from baseline ([1]; all pts in Study A (n=4241)): −6
Change in TJC, mean change from baseline ([1]; all pts in Study A (n=4241)): −8
SJC = 0 ([1]; all pts in Study A (n=4241)): 24%
TJC = 0 ([1]; all pts in Study A (n=4241)): 21%
Change in SJC, mean change from baseline ([1]; prior biologic: Any (n=688)): −6
Change in TJC, mean change from baseline ([1]; prior biologic: Any (n=688)): −8
SJC = 0 ([1]; prior biologic: Any (n=688)): 18%
TJC = 0 ([1]; prior biologic: Any (n=688)): 16%
Change in SJC, mean change from baseline ([1]; prior biologic: ETA (n=114)): −7
Change in TJC, mean change from baseline ([1]; prior biologic: ETA (n=114)): −8
SJC = 0 ([1]; prior biologic: ETA (n=114)): 21%
TJC = 0 ([1]; prior biologic: ETA (n=114)): 16%
Change in SJC, mean change from baseline [1, 3]: −5
Change in TJC, mean change from baseline [1, 3]: −7
SJC = 0 [1, 3]: 7%
TJC = 0 [1, 3]: 10%
Change in SJC, mean change from baseline ([1]; prior biologic: INF (n=358)): −6
Change in TJC, mean change from baseline ([1]; prior biologic: INF (n=358)): −8
SJC = 0 ([1]; prior biologic: INF (n=358)): 22%
TJC = 0 ([1]; prior biologic: INF (n=358)): 17%
Change in SJC, mean change from baseline ([1]; prior biologic: None (n=3553)): −7
Change in TJC, mean change from baseline ([1]; prior biologic: None (n=3553)): −8
SJC = 0 ([1]; prior biologic: None (n=3553)): 25%
TJC = 0 ([1]; prior biologic: None (n=3553)): 22%
Change in SJC (0-28), mean change from baseline [1, 4]: −6
Change in TJC (0-28), mean change from baseline [1, 4]: −8
Change in SJC (0-28), mean change from baseline [1, 5]: −8
Change in TJC (0-28), mean change from baseline [1, 5]: −10
Change in SJC (0-28), mean change from baseline ([1]; Week 12, concomitant MTX + SSZ): −7
Change in TJC (0-28), mean change from baseline ([1]; Week 12, concomitant MTX + SSZ): −8
Change in SJC (0-28), mean change from baseline [1, 6]: −7
Change in TJC (0-28), mean change from baseline [1, 6]: −8
Change in SJC (0-28), mean change from baseline [1, 7]: −7
Change in TJC (0-28), mean change from baseline [1, 7]: −9
Change in SJC (0-28), mean change from baseline [1, 8]: −6
Change in TJC (0-28), mean change from baseline [1, 8]: −7
Change in SJC (0-28), mean change from baseline [1, 9]: −6
Change in TJC (0-28), mean change from baseline [1, 9]: −8
Change in SJC (0-28), mean change from baseline [1, 10]: −7
Change in TJC (0-28), mean change from baseline [1, 10]: −11
Change in SJC (0-28), mean change from baseline [1, 11]: −7
Change in TJC (0-28), mean change from baseline [1, 11]: −10
Change in SJC (0-28), mean change from baseline [1, 12]: −6
Change in TJC (0-28), mean change from baseline [1, 12]: −8
Change in SJC (0-28), mean change from baseline [1, 13]: −7
Change in TJC (0-28), mean change from baseline [1, 13]: −8
Change in SJC (0-28), mean change from baseline [1, 14]: −7
Change in TJC (0-28), mean change from baseline [1, 14]: −9
patients achieving SJC=0 ([1]; week 12): 25%
patients achieving TJC=0 ([1]; week 12): 23%
SJC (0-28) mean change from baseline ([1]; week 12, 1 prior biologic): −6.4
TJC (0-28) mean change from baseline ([1]; week 12, 1 prior biologic): −8.0
SJC (0-28) mean change from baseline ([1]; week 12, 2 prior biologics): −6.9
TJC (0-28) mean change from baseline ([1]; week 12, 2 prior biologics): −8.1
SJC (0-28) mean change from baseline ([1]; week 12, 3 prior biologics): −6.6
TJC (0-28) mean change from baseline ([1]; week 12, 3 prior biologics): −11.3
reduction in SJC28 ([1]; week 12, median): ~70%
reduction in TJC28 ([1]; week 12, median): ~77%
SJC (0-28) mean change from baseline ([1]; week 12, no prior biologic): −6.4
TJC (0-28) mean change from baseline ([1]; week 12, no prior biologic): −8.1
SJC (0-28) mean change from baseline ([1]; week 12, prior etanercept only): −6.6
TJC (0-28) mean change from baseline ([1]; week 12, prior etanercept only): −8.4
SJC (0-28) mean change from baseline ([1]; week 12, prior infliximab only): −6.8
TJC (0-28) mean change from baseline ([1]; week 12, prior infliximab only): −7.8
Median TJC reduction ([1]; week 12, prior biologic: Any): −8
Mediant SJC reduction ([1]; week 12, prior biologic: Any): −6
Median TJC reduction ([1]; week 12, prior biologic: ETA): −8
Mediant SJC reduction ([1]; week 12, prior biologic: ETA): −7
Median TJC reduction [1, 15]: −7
Mediant SJC reduction [1, 15]: −5
Median TJC reduction ([1]; week 12, prior biologic: INF): −8
Mediant SJC reduction ([1]; week 12, prior biologic: INF): −6
Median TJC reduction ([1]; week 12, prior biologic: None): −8
Mediant SJC reduction ([1]; week 12, prior biologic: None): −7
withdrawals for lack of efficacy [2]: 8%
